Reference: patent US20160090556A1, “PRODUCTS COMPRISING MALODOR REDUCTION MATERIALS” (The Procter & Gamble Company, priority 2014, published 2016)

How the values were obtained:
[1] = Probability of Ingredient Color Instability; type: physicochemical; conditions: class code letter within Comment Code
[2] = Liquid dish neat product liquid-air partition coefficient; type: physicochemical
[3] = codes K/L of the Comment Code, Table 1

Compound	Probability of Ingredient Color Instability (Comment Code E/F) [1]	Comment Code: Log of liquid dish neat product liquid-air partition coefficient ([2]; code letters K, L)	Comment Code: Log of liquid dish neat product liquid-air partition coefficient [2, 3]	further results
CC1COC(C)(c2ccc3c(c2)C(C)(C)CCC3(C)C)O1 (stereo not drawn) [Material 2]	F (Probability of Ingredient Color Instability<71%)	–	–	–
CCC(C)(C)C1CCC(=O)CC1 [Material 21]	F (Probability of Ingredient Color Instability<71%)	–	–	–
CC1(C)C2CC=C(C=O)C1C2 (stereo not drawn) [Material 70]	F (Probability of Ingredient Color Instability<71%)	–	–	–
CCCCCCCCC(C)C=O (stereo not drawn) [Material 92]	F (Probability of Ingredient Color Instability<71%)	–	–	–
CCCCCCCCCC(C)=O [Material 102]	F (Probability of Ingredient Color Instability<71%)	–	–	–
O=CC1CCC2C3CCC(C3)C12 (stereo not drawn) [Material 130]	F (Probability of Ingredient Color Instability<71%)	–	–	–
C=CC(C)(CCC=C(C)C)OC(=O)c1ccccc1 (stereo not drawn) [Material 152]	F (Probability of Ingredient Color Instability<71%)	–	–	–
C=CC(C)(CCC=C(C)C)OC(=O)c1ccccc1N (stereo not drawn) [Material 153]	F (Probability of Ingredient Color Instability<71%)	–	–	–
C[C@@H]1CCC=C2CC[C@@H](C(C)(C)O)C[C@]21C [Material 1107]	–	K (Log of liquid dish neat product liquid-air partition coefficient greater than or equal to −7)	–	Log of liquid dish neat product liquid-air partition coefficient (Comment Code K/L) [2]: K (Log of liquid dish neat product liquid-air partition coefficient greater than or equal to −7)
CC=Cc1ccc(OCC)c(O)c1 [Material 1112]	–	K (Log of liquid dish neat product liquid-air partition coefficient greater than or equal to −7)	–	–
COCc1ccc(O)c(OC)c1 [Material 1113]	–	–	K (Log of liquid dish neat product liquid-air partition coefficient greater than or equal to −7)	–
COc1ccc(C=O)cc1OC [Material 1118]	–	K (Log of liquid dish neat product liquid-air partition coefficient greater than or equal to −7)	–	–
CC(=O)C1=C(C)[C@@H]2C[C@@]3(C1)[C@H](C)CC[C@H]3C2(C)C [Material 1129]	–	K (Log of liquid dish neat product liquid-air partition coefficient greater than or equal to −7)	K (Log of liquid dish neat product liquid-air partition coefficient greater than or equal to −7)	–
CC(=O)OC(C)CC(C)(C)c1ccccc1 (stereo not drawn) [Material 1134]	–	K (Log of liquid dish neat product liquid-air partition coefficient greater than or equal to −7)	–	–
C[C@@H]1CC[C@H]2[C@@H]1[C@H]1[C@@H](CC[C@]2(C)O)C1(C)C [Material 1140]	–	K (Log of liquid dish neat product liquid-air partition coefficient greater than or equal to −7)	K (Log of liquid dish neat product liquid-air partition coefficient greater than or equal to −7)	–
C[C@H]1[C@@H]2C[C@H](C[C@@]13C=CC(=O)CC3)C2(C)C [Material 1143]	–	K (Log of liquid dish neat product liquid-air partition coefficient greater than or equal to −7)	K (Log of liquid dish neat product liquid-air partition coefficient greater than or equal to −7)	–
CC1(C)C2CCC3(C2)C1C1(CCC3(C)C)OCCO1 (stereo not drawn) [Material 1144]	–	K (Log of liquid dish neat product liquid-air partition coefficient greater than or equal to −7)	K (Log of liquid dish neat product liquid-air partition coefficient greater than or equal to −7)	–
CC1(C)C2CCC3(C2)C1C1(CCC3(C)C)OCCO1 (stereo not drawn) [Material 1145]	–	K (Log of liquid dish neat product liquid-air partition coefficient greater than or equal to −7)	K (Log of liquid dish neat product liquid-air partition coefficient greater than or equal to −7)	–
